Laboratory results: patent US20120264827A1, “SULFANYLAMIDE DERIVATIVES, USES THEREOF AND COMPOSITIONS COMPRISING THEM” (YISSUM RESEARCH DEVELOPMENT COMPANY OF THE HEBREW …, priority 2009, published 2012)
Read-outs that look alike come from different tables or passages of the source.

Experiments:
[1] = test system: maximal electroshock seizure (MES); assay: Maximal electroshock seizure test (MES), mice, intraperitoneal; type: in vivo; settings: ip;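 note: adult male CF no. 1 albino mice of 18–25 g, given compound intraperitoneally as a 0.5% methylcellulose suspension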
[2] = test system: subcutaneous metrazol (pentylenetetrazol) seizure; assay: Subcutaneous metrazol seizure threshold test (scMet), mice, intraperitoneal; type: in vivo; settings: ip;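 note: adult male CF no. 1 albino mice weighing 18-25 g, dosed intraperitoneally with compounds suspended in 0.5% methylcellulose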
[3] = test system: maximal electroshock seizure (MES); settings: male, Sprague-Dawley, rat, in vivo, po
Procedure: (§1) The tested compounds were suspended in 0.5% methylcellulose and administered (a) intraperitioneally (ip) to adult male CF no. 1 albino mice (18-25 g) in volume of 0.01 mL/g body weight and (b) orally to adult male Sprague-Dawley albino rats (100-150 g) in volume of 0.04 mL per 10 g of body weight.
(§2) The TD50 was determined by varying the dose of the tested compounds until four points were established between the dose level that induced no signs of minimal motor impairment in any of the animals and the dose at which all the animals were considered impaired. […] The PIs were calculated by dividing the TD50 by the ED50.

in vivo = settings: male, Sprague-Dawley, rat, po
Procedure: as §1, §2

[4] = test system: maximal electroshock seizure (MES); assay: Maximal electroshock seizure test (MES), rats, oral; settings: for responders at 30 mg/kg / ED50: Rattus norvegicus, po; for responders at 30 mg/kg: read-out: Anti-MES activity (number of animals protected/number of animals tested); for ED50: read-out: MES ED50, rats dosed orally;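 for all read-outs here: adult male Sprague-Dawley rats received test compounds by mouth as a suspension in 0.5% methylcellulose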
Procedure: as §1, §2

[5] = test system: subcutaneous metrazol (pentylenetetrazol) seizure; settings: male, Sprague-Dawley, rat, in vivo, po
Procedure: (§3) The evaluation of the anticonvulsant activity in the maximal electroshock seizure test (MES) and subcutaneous metrazol seizure threshold test (scMet) and the determination of neurotoxicity in the rotorod test, positional sense test, and others were performed according to the protocols described in White, H. S., Woodhead J. H., Wilcox K. S., Stables J. P., Kupferberg H. J., Wolf H. H., Discovery and Preclinical Development of Antiepileptic Drugs; 5th ed.; Lippincott Williams &Wilkins: New york, 2002; 36-48.
(§4) The tested compounds were suspended in 0.5% methylcellulose and administered (a) intraperitioneally (ip) to adult male CF no. 1 albino mice (18-25 g) in volume of 0.01 mL/g body weight and (b) orally to adult male Sprague-Dawley albino rats (100-150 g) in volume of 0.04 mL per 10 g of body weight. The pentylenetetrazol solution at convulsing dose was prepared by sufficient dissolution of pentylenetetrazol in 0.9% saline to make 0.85% solution for administration to mice and a 2.82% solution for administration to rats.
as §2

[6] = test system: subcutaneous metrazol (pentylenetetrazol) seizure; assay: animal or person; settings: Rattus norvegicus, po, read-out: scMet ED50
Procedure: as §3, §4, §2

[7] = 30 mg/kg, 0.5 h after administration
[8] = 30 mg/kg, 4 h after administration
[9] = 100 mg/kg, 0.5 h after administration
[10] = 100 mg/kg, 4 h after administration
[11] = 300 mg/kg, 0.5 h after administration
[12] = 300 mg/kg, 4 h after administration
[13] = interval in parentheses = 95% confidence interval

Structure (SMILES) | MES (number of animals protected/number of animals tested) [1, 7] | MES (number of animals protected/number of animals tested) [1, 8] | MES (number of animals protected/number of animals tested) [1, 9] | MES (number of animals protected/number of animals tested) [1, 10] | MES (number of animals protected/number of animals tested) [1, 11] | MES (number of animals protected/number of animals tested) [1, 12] | scMet (number of animals protected/number of animals tested) [2, 7] | scMet (number of animals protected/number of animals tested) [2, 8] | scMet (number of animals protected/number of animals tested) [2, 9] | scMet (number of animals protected/number of animals tested) [2, 10] | scMet (number of animals protected/number of animals tested) [2, 11] | scMet (number of animals protected/number of animals tested) [2, 12] | PI, protective index (PI = TD50/ED50) in the MES test [3] | TD50 (in vivo) [mg/kg] | responders at 30 mg/kg ([4]; 0.5 h) [%] | responders at 30 mg/kg ([4]; 1 h) [%] | responders at 30 mg/kg ([4]; 2 h) [%] | responders at 30 mg/kg ([4]; 4 h) [%] | responders at 30 mg/kg ([4]; […]) [%] | ED50 [4, 13] [mg/kg] | other results
CC(C)(C)C(=O)Nc1ccc(S(N)(=O)=O)cc1 [Compound 9, 2,2-Dimethyl-N-(4-sulfamoyl-phenyl)-propionamide] | 0/1 | 0/1 | 1/3 | 2/3 | 1/1 | 1/1 | 0/1 0/1 0/1 | 0/1 0/1 0/1 | 0/1 0/1 0/1 | 0/1 0/1 0/1 | 0/1 0/1 0/1 | 0/1 0/1 0/1 | >11.8 | > 500 | 0 | 75 | 50 | 100 | 0 | 42 | melting point: 228 to 229 °C; MES ED50 ([4]; rats dosed orally, interval in parentheses = 95% confidence interval): 42.2 (22.9-86.4) mg/kg
NS(=O)(=O)c1ccc(NC(=O)Cc2ccccc2)cc1 [Compound 30, 2-Phenyl-N-(4-sulfamoyl-phenyl)-acetamide] | 0/1 | 0/1 | 3/3 | 3/3 | 1/1 | 1/1 | 0/1 0/1 0/1 | 0/1 0/1 0/1 | 0/1 0/1 0/1 | 0/1 0/1 0/1 | 0/1 0/1 0/1 | 0/1 0/1 0/1 | >31.0 | > 500 | 0 | 100 | 75 | 100 | 0 | 16.1 | PI, protective index (PI = TD50/ED50) in the scMet test [5]: >2; ED50 [6]: > 250 mg/kg
CCCC(C)C(=O)Nc1ccc(S(N)(=O)=O)cc1 (stereo not shown) [Compound 16, 2-Methyl-N-(4-sulfamoyl-phenyl)-pentanamide] | 0/1 | 0/1 | 0/3 | 2/3 | 0/1 | 1/1 | 0/1 0/1 0/1 | 0/1 0/1 0/1 | 0/1 0/1 0/1 | 0/1 0/1 0/1 | 0/1 0/1 0/1 | 0/1 0/1 0/1 | >46.3 | > 500 | 25 | 100 | 100 | 100 | 25 | ~10 | PI, protective index (PI = TD50/ED50) in the scMet test [5]: >2; ED50 [6]: > 250 mg/kg
CCCC(C(=O)Nc1ccc(S(N)(=O)=O)cc1)C(C)C (stereo not shown) [Compound 18, 2-Isopropyl-N-(4-sulfamoyl-phenyl)-pentanamide] | 0/1 | 0/1 | 0/3 | 2/3 | 1/1 | 1/1 | 0/1 0/1 0/1 | 0/1 0/1 0/1 | 0/1 0/1 0/1 | 0/1 0/1 0/1 | 0/1 0/1 0/1 | 0/1 0/1 0/1 | >12.0 | > 500 | 0 | 100 | 75 | 50 | 0 | 41.5 | melting point: 217 to 219 °C; PI, protective index (PI = TD50/ED50) in the scMet test [5]: >2; ED50 [6]: > 250 mg/kg
CCCCC(CC)C(=O)Nc1ccc(S(N)(=O)=O)cc1 (stereo not shown) [Compound 25, 2-Ethyl-N-(4-sulfamoyl-phenyl)-hexanamide] | 0/1 | 0/1 | 3/3 | 3/3 | 1/1 | 1/1 | 0/1 | 0/1 0/1 0/1 | 2/5 | 0/1 0/1 0/1 | 3/5 | 0/1 0/1 0/1 | >21.0 | > 500 | 0 | 100 | 75 | 100 | 0 | 23.9 | melting point: 188 to 190 °C; PI, protective index (PI = TD50/ED50) in the scMet test [5]: >2; ED50 [6]: > 250 mg/kg
